Measured values published in the supplement of paper PMC10307832.

Columns and labels:
Experiment in all cases: relative viability (nuclei count vs DMSO), 5 days (fraction); higher = more cells survive
[1] = compound: CC1=CC(=CC=C1)NC2=NC(=CS2)C3=CC=NC=C3
Procedure, shortened: (§1)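 In 1536-well plates, lung cancer cell lines rested overnight at 37 °C before five library-drug doses (not always all listed), √10 apart, were pinned onto vehicle-anchored plates. Nuclei were counted with MetaXpress from 4× Hoechst images taken after 5 days without medium change. Viability compares treated-well with vehicle-well nuclei as a median over plates, and plates needed control CV below 25% plus at least one doubling to pass.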

Masitinib = compound: Cc1ccc(NC(=O)c2ccc(CN3CCN(C)CC3)cc2)cc1Nc1nc(-c2cccnc2)cs1 [Masitinib]
Procedure, shortened: as §1

[2] = compound: CC1=CC(=CC=C1)NC2=NC(=CS2)C3=CC=NC=C3 + CC1(C)CCC(c2ccc(Cl)cc2)=C(CN2CCN(c3ccc(C(=O)NS(=O)(=O)c4ccc(N[C@H](CCN5CCOCC5)CSc5ccccc5)c(S(=O)(=O)C(F)(F)F)c4)cc3)CC2)C1 [Navitoclax] (partner 0.5 µM)
Procedure, shortened: (§2)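 Cells from lung cancer lines were seeded into 1536-well plates and, one day later, dosed by pin tool. Treatments were either a single drug or a fixed dose of an anchor drug with five library-drug doses (not always all listed) in √10 steps. After 5 days, nuclei were stained in a one-step fixation (final 0.05% Triton X-100, 1% formaldehyde, 1 ug/ml Hoechst) and counted on 4× images, and relative viability is the treated-to-vehicle nuclei ratio, as the median of duplicate plates.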

[3] = compound: CC1=CC(=CC=C1)NC2=NC(=CS2)C3=CC=NC=C3 + COc1cc2c(Oc3ccc(NC(=O)C4(C(=O)Nc5ccc(F)cc5)CC4)cc3F)ccnc2cc1OCCCN1CCOCC1 [Foretinib] (partner 0.25 µM)
Procedure, shortened: as §2

Row | Cell Line | relative viability ([1]; 0.08 µM) | relative viability ([1]; 0.253 µM) | relative viability ([1]; 0.8 µM) | relative viability ([1]; 2.53 µM) | relative viability ([1]; 8 µM) | relative viability (Masitinib; 0.01 µM) | relative viability (Masitinib; 0.03162 µM) | relative viability (Masitinib; 0.1 µM) | relative viability (Masitinib; 0.3162 µM) | relative viability (Masitinib; 1 µM) | relative viability ([2]; first compound 0.8 µM) | relative viability ([2]; first compound 2.53 µM) | relative viability ([2]; first compound 8 µM) | relative viability ([3]; first compound 0.08 µM) | relative viability ([3]; first compound 0.253 µM) | relative viability ([3]; first compound 0.8 µM) | relative viability ([3]; first compound 2.53 µM) | relative viability ([3]; first compound 8 µM) | relative viability ([2]; first compound 0.08 µM) | relative viability ([2]; first compound 0.253 µM)
1 | LCLC-97TM1 | 0.763 | 0.818 | 0.96 | 0.927 | 0.974 | 0.803 | 1.03 | 0.869 | 1.02 | 0.928 | 0.641 | 0.385 | 0.418 | 0.966 | 0.906 | 0.841 | 1.02 | 0.929 |  | 
2 | NCI-H1734 | 0.864 | 0.952 | 1.03 | 0.988 | 0.96 | 0.957 | 1.08 | 1.06 | 0.976 | 0.942 | 0.827 | 0.869 | 0.698 | 0.821 | 0.84 | 0.816 | 0.873 | 0.794 | 0.835 | 0.834
3 | RERF-LC-KJ | 0.945 | 0.91 | 0.834 | 0.751 | 0.714 | 0.922 | 0.943 | 1.03 | 0.963 | 0.829 | 0.631 | 0.638 | 0.275 | 0.847 | 0.874 | 0.718 | 0.78 | 0.762 | 0.71 | 0.627
4 | BEN | 0.928 | 0.95 | 0.913 | 0.897 | 1.03 | 1.06 | 0.845 | 1.16 | 0.953 | 0.975 | 0.0712 | 0.0922 | 0.084 | 0.615 | 0.435 | 0.624 | 0.392 | 0.629 | 0.0747 | 0.0619
5 | NCI-H1703 | 0.831 | 0.977 | 0.907 | 0.986 | 0.946 | 0.866 | 0.821 | 0.526 | 0.32 | 0.261 | 1.38 | 1.26 | 1.07 | 0.293 | 0.347 | 0.367 | 0.374 | 0.375 | 0.92 | 1.13
6 | LC-2-ad | 0.877 | 0.916 | 0.967 | 0.839 | 0.785 | 0.806 | 1.01 | 0.951 | 0.966 | 0.944 | 0.383 | 0.464 | 0.278 | 0.836 |  | 0.901 | 0.909 | 1.07 | 0.395 | 0.379
7 | SW 1573 | 0.989 | 0.945 | 1.08 | 0.962 | 0.909 | 1.08 | 0.945 | 1.1 | 1.02 | 0.974 | 0.924 | 1.1 | 0.841 | 0.818 | 0.872 | 0.97 | 0.986 | 0.869 | 0.916 | 0.965
8 | ChaGo-K-1 | 0.997 | 1.01 | 0.973 | 1.03 | 0.814 | 1.17 | 0.988 | 1.12 | 1.1 | 0.984 | 1.06 | 0.411 | 0.849 | 0.977 | 0.938 | 0.931 | 0.902 | 0.85 | 0.9 | 0.806
9 | COR-L 105 | 0.742 | 0.901 | 0.818 | 0.776 | 0.667 | 0.944 | 0.894 | 0.976 | 0.856 | 0.897 | 0.634 | 0.809 | 0.456 | 1.16 | 0.977 | 1.01 | 1.01 | 0.562 | 0.573 | 0.779
10 | NCI-H1993 | 0.67 | 0.788 | 0.768 | 0.792 | 0.876 | 0.91 | 0.867 | 0.986 | 0.826 | 0.917 | 0.818 | 0.775 | 0.793 | 0.684 | 0.635 | 0.649 | 0.703 | 0.669 | 0.724 | 0.718
11 | Calu-6 | 0.894 | 0.936 | 0.873 | 0.943 | 0.87 | 0.98 | 1.04 | 1.06 | 0.977 | 0.985 | 0.763 | 0.773 | 0.711 | 0.712 | 0.795 | 0.727 | 0.768 | 0.768 | 0.748 | 0.685
12 | NCI-H2009 | 0.877 | 0.944 | 0.98 | 0.945 | 0.893 | 0.806 | 0.991 | 0.922 | 0.994 | 0.981 | 1.11 | 1.18 | 1.02 | 1.2 | 1.11 | 1.14 | 1.22 | 1.18 | 1.05 | 1.12
13 | SK-LU-1 | 0.996 | 1.03 | 0.702 | 1.1 | 0.968 | 1.05 | 1.05 | 1.13 | 1.24 | 1.02 | 0.636 | 1.06 | 1.35 | 0.767 | 0.886 |  | 0.781 | 0.76 | 0.837 | 1.22
14 | NCI-H2347 | 0.948 | 0.864 | 0.749 | 0.982 | 0.964 | 0.88 | 0.911 | 1 | 1.02 | 0.966 | 0.599 | 0.83 | 0.632 | 0.926 | 0.721 | 0.855 | 0.994 | 0.842 | 0.613 | 0.751
15 | HCC-366 | 0.979 | 0.956 | 1.03 | 1.02 | 0.931 | 0.729 | 1.14 | 0.75 | 0.977 | 0.994 | 1.04 | 0.884 | 0.949 | 0.859 | 0.89 | 0.883 | 0.885 | 0.9 | 0.934 | 1.04
16 | EMC-BAC-2 | 0.834 | 0.712 | 1.01 | 0.838 | 0.885 | 0.78 | 0.784 | 0.893 | 0.937 | 0.927 | 1.1 | 1.15 | 0.963 | 0.888 | 0.993 | 1 | 0.948 | 0.879 | 1.06 | 1.22
